Results from patent US10167262B2, “Herbicidal substituted 3-arylpyrazoles” (FMC CORPORATION, priority 2014, dated 2019).

These molecules were tested on barnyardgrass (Echinochloa crus-galli) (assay: Test A pre-/postemergence greenhouse herbicide test, visual injury rating 0-100). Conditions: Postemergence, 1000 g ai/ha.
Type: in vivo
How it was run: (§1)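 Seeds planted in loam-sand blend; preemergence directed soil spray and postemergence spray at 2–10 cm, one- to two-leaf stage, compounds formulated in non-phytotoxic solvent with surfactant. After about 10 days in greenhouse, injury rated visually against untreated controls, 0 (no effect) to 100 (complete control).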
For `N=C(c1ccccc1)c1c[nH]nc1-c1cc(F)cc(F)c1` [Compound 67], the “Plant response rating (0 to 100 scale), Barnyardgrass” value was 0. In the case of `Fc1cc(Cl)cc(-c2n[nH]cc2C(=NN2CCCC2)c2ccccc2)c1` [Compound 42], the “Plant response rating (0 to 100 scale), Barnyardgrass” value is reported as 0.

Same assay, conditions: Preemergence, 1000 g ai/ha
For `N=C(c1ccccc1)c1c[nH]nc1-c1cc(F)cc(F)c1` [Compound 67], the “Plant response rating (0 to 100 scale), Barnyardgrass” value was 0. In the case of `Fc1cc(Cl)cc(-c2n[nH]cc2C(=NN2CCCC2)c2ccccc2)c1` [Compound 42], the “Plant response rating (0 to 100 scale), Barnyardgrass” value is reported as 0.

Each molecule was assayed on pigweed (Amaranthus retroflexus) in the same assay as above. Conditions: Postemergence, 1000 g ai/ha.
Type: in vivo
How it was run: as §1
For `N=C(c1ccccc1)c1c[nH]nc1-c1cc(F)cc(F)c1` [Compound 67], the “Plant response rating (0 to 100 scale), Pigweed” value (“Plant response rating … Pigweed” below) was 80. With `Fc1cc(Cl)cc(-c2n[nH]cc2C(=NN2CCCC2)c2ccccc2)c1` [Compound 42] the “Plant response rating … Pigweed” value was 100.

Same assay, conditions: Preemergence, 1000 g ai/ha
With `N=C(c1ccccc1)c1c[nH]nc1-c1cc(F)cc(F)c1` [Compound 67] the “Plant response rating … Pigweed” value was 100. In the case of `Fc1cc(Cl)cc(-c2n[nH]cc2C(=NN2CCCC2)c2ccccc2)c1` [Compound 42], the “Plant response rating … Pigweed” value is reported as 100.

The molecules below were run on wheat (Triticum aestivum) in the same assay as above. Conditions: Postemergence, 1000 g ai/ha.
Type: in vivo
How it was run: as §1
With `N=C(c1ccccc1)c1c[nH]nc1-c1cc(F)cc(F)c1` [Compound 67] the “Plant response rating (0 to 100 scale), Wheat” value (from here on “Plant response rating … Wheat”) was 0. In the case of `Fc1cc(Cl)cc(-c2n[nH]cc2C(=NN2CCCC2)c2ccccc2)c1` [Compound 42], the “Plant response rating … Wheat” value is reported as 0.

Same assay, conditions: Preemergence, 1000 g ai/ha
For `N=C(c1ccccc1)c1c[nH]nc1-c1cc(F)cc(F)c1` [Compound 67], the “Plant response rating … Wheat” value was 0. For `Fc1cc(Cl)cc(-c2n[nH]cc2C(=NN2CCCC2)c2ccccc2)c1` [Compound 42], the “Plant response rating … Wheat” value was 0.

Each molecule was assayed on corn (Zea mays) in the same assay as above. Conditions: Postemergence, 1000 g ai/ha.
Type: in vivo
How it was run: as §1
In the case of `N=C(c1ccccc1)c1c[nH]nc1-c1cc(F)cc(F)c1` [Compound 67], the “Plant response rating (0 to 100 scale), Corn” value (“Plant response rating … Corn” for short) is reported as 0. For `Fc1cc(Cl)cc(-c2n[nH]cc2C(=NN2CCCC2)c2ccccc2)c1` [Compound 42], the “Plant response rating … Corn” value was 0.

Same assay, conditions: Preemergence, 1000 g ai/ha
With `N=C(c1ccccc1)c1c[nH]nc1-c1cc(F)cc(F)c1` [Compound 67] the “Plant response rating … Corn” value was 0. For `Fc1cc(Cl)cc(-c2n[nH]cc2C(=NN2CCCC2)c2ccccc2)c1` [Compound 42], the “Plant response rating … Corn” value was 0.

The molecules below were run on morningglory (Ipomoea spp.) in the same assay as above. Conditions: Postemergence, 1000 g ai/ha.
Type: in vivo
How it was run: as §1
For `N=C(c1ccccc1)c1c[nH]nc1-c1cc(F)cc(F)c1` [Compound 67], the “Plant response rating (0 to 100 scale), Morningglory” value (“Plant response rating … Morningglory” below) was 0. For `Fc1cc(Cl)cc(-c2n[nH]cc2C(=NN2CCCC2)c2ccccc2)c1` [Compound 42], the “Plant response rating … Morningglory” value was 0.

Same assay, conditions: Preemergence, 1000 g ai/ha
For `N=C(c1ccccc1)c1c[nH]nc1-c1cc(F)cc(F)c1` [Compound 67], the “Plant response rating … Morningglory” value was 0. `Fc1cc(Cl)cc(-c2n[nH]cc2C(=NN2CCCC2)c2ccccc2)c1` [Compound 42] was tested, and the “Plant response rating … Morningglory” value was 0.

What follows are molecules tested on velvetleaf (Abutilon theophrasti) in the same assay as above. Conditions: Postemergence, 1000 g ai/ha.
Type: in vivo
How it was run: as §1
For `N=C(c1ccccc1)c1c[nH]nc1-c1cc(F)cc(F)c1` [Compound 67], the “Plant response rating (0 to 100 scale), Velvetleaf” value (shortened to “Plant response rating … Velvetleaf”) was 90. In the case of `Fc1cc(Cl)cc(-c2n[nH]cc2C(=NN2CCCC2)c2ccccc2)c1` [Compound 42], the “Plant response rating … Velvetleaf” value is reported as 100.

Same assay, conditions: Preemergence, 1000 g ai/ha
In the case of `N=C(c1ccccc1)c1c[nH]nc1-c1cc(F)cc(F)c1` [Compound 67], the “Plant response rating … Velvetleaf” value is reported as 100. With `Fc1cc(Cl)cc(-c2n[nH]cc2C(=NN2CCCC2)c2ccccc2)c1` [Compound 42] the “Plant response rating … Velvetleaf” value was 100.

What follows are molecules tested on giant foxtail (Setaria faberii) in the same assay as above. Conditions: Postemergence, 1000 g ai/ha.
Type: in vivo
How it was run: as §1
`N=C(c1ccccc1)c1c[nH]nc1-c1cc(F)cc(F)c1` [Compound 67] was tested, and the “Plant response rating (0 to 100 scale), Foxtail, Giant” value (shortened to “Plant response rating … Giant”) was 0. In the case of `Fc1cc(Cl)cc(-c2n[nH]cc2C(=NN2CCCC2)c2ccccc2)c1` [Compound 42], the “Plant response rating … Giant” value is reported as 0.

Same assay, conditions: Preemergence, 1000 g ai/ha
`N=C(c1ccccc1)c1c[nH]nc1-c1cc(F)cc(F)c1` [Compound 67] was tested, and the “Plant response rating … Giant” value was 0. For `Fc1cc(Cl)cc(-c2n[nH]cc2C(=NN2CCCC2)c2ccccc2)c1` [Compound 42], the “Plant response rating … Giant” value was 0.

These molecules were tested on large (Lg) crabgrass (Digitaria sanguinalis) in the same assay as above. Conditions: Postemergence, 1000 g ai/ha.
Type: in vivo
How it was run: as §1
In the case of `N=C(c1ccccc1)c1c[nH]nc1-c1cc(F)cc(F)c1` [Compound 67], the “Plant response rating (0 to 100 scale), Crabgrass, Large” value (shortened to “Plant response rating … Large”) is reported as 0. In the case of `Fc1cc(Cl)cc(-c2n[nH]cc2C(=NN2CCCC2)c2ccccc2)c1` [Compound 42], the “Plant response rating … Large” value is reported as 0.

Same assay, conditions: Preemergence, 1000 g ai/ha
In the case of `N=C(c1ccccc1)c1c[nH]nc1-c1cc(F)cc(F)c1` [Compound 67], the “Plant response rating … Large” value is reported as 0. In the case of `Fc1cc(Cl)cc(-c2n[nH]cc2C(=NN2CCCC2)c2ccccc2)c1` [Compound 42], the “Plant response rating … Large” value is reported as 0.

What follows are molecules tested on sedge, umbrella (small-flower umbrella sedge, Cyperus difformis) (assay: Test B flooded paddy test, plant response rating 0-100). Conditions: Flood, 250 g ai/ha; scale 0 to 100 (0 no effect, 100 complete control); 13 to 15 days.
Type: in vivo
From the text: (§2) At time of treatment, test pots were flooded to 3 cm above the soil surface, treated by application of test compounds directly to the paddy water, and then maintained at that water depth for the duration of the test. Treated plants and controls were maintained in a greenhouse for 13 to 15 days, after which time all species were compared to controls and visually evaluated. […] A dash (-) response means no test result.
For `N=C(c1ccccc1)c1c[nH]nc1-c1cc(F)cc(F)c1` [Compound 67], the “Plant response rating, Sedge, Umbrella” value was 0. With `Fc1cc(Cl)cc(-c2n[nH]cc2C(=NN2CCCC2)c2ccccc2)c1` [Compound 42] the “Plant response rating, Sedge, Umbrella” value was 0.

Each molecule was assayed on barnyardgrass (Echinochloa crus-galli) in the same assay as above. Conditions: Flood, 250 g ai/ha; scale 0 to 100 (0 no effect, 100 complete control); 13 to 15 days.
Type: in vivo
From the text: as §2
`N=C(c1ccccc1)c1c[nH]nc1-c1cc(F)cc(F)c1` [Compound 67] was tested, and the “Plant response rating, Barnyardgrass” value was 0. In the case of `Fc1cc(Cl)cc(-c2n[nH]cc2C(=NN2CCCC2)c2ccccc2)c1` [Compound 42], the “Plant response rating, Barnyardgrass” value is reported as 0.

These molecules were tested on ducksalad (Heteranthera limosa) in the same assay as above. Conditions: Flood, 250 g ai/ha; scale 0 to 100 (0 no effect, 100 complete control); 13 to 15 days.
Type: in vivo
From the text: as §2
For `N=C(c1ccccc1)c1c[nH]nc1-c1cc(F)cc(F)c1` [Compound 67], the “Plant response rating, Ducksalad” value was 0. In the case of `Fc1cc(Cl)cc(-c2n[nH]cc2C(=NN2CCCC2)c2ccccc2)c1` [Compound 42], the “Plant response rating, Ducksalad” value is reported as 0.

What follows are molecules tested on rice (Oryza sativa) in the same assay as above. Conditions: Flood, 250 g ai/ha; scale 0 to 100 (0 no effect, 100 complete control); 13 to 15 days.
Type: in vivo
From the text: as §2
`N=C(c1ccccc1)c1c[nH]nc1-c1cc(F)cc(F)c1` [Compound 67] was tested, and the “Plant response rating, Rice” value was 0. For `Fc1cc(Cl)cc(-c2n[nH]cc2C(=NN2CCCC2)c2ccccc2)c1` [Compound 42], the “Plant response rating, Rice” value was 0.
